{
  "source": "paper PMC5897044",
  "about": "(Cell host & microbe, 2017)",
  "test_system": "PMN infiltration in skin",
  "conditions": "mouse, in vivo",
  "note": "Bridge positions count the residues as written; N and C are the ends. Peptide text beside a SMILES is read from it.",
  "data": [
    {"smiles": "C[C@@H](O)[C@H](NC(=O)[C@H](CO)NC(=O)[C@@H](N)Cc1ccc(O)cc1)C(=O)N[C@H]1CSC(=O)[C@H](Cc2ccccc2)NC(=O)[C@H](Cc2ccc(O)cc2)NC(=O)[C@H](Cc2ccc(O)cc2)NC(=O)[C@H](CO)NC1=O", "note": "[S. caprae AIP] (H-YSTCSYYF; thioester 4-C)", "values": [
      {"measurement": "magnitude of PMN infiltration by sterile injection, AIP vs vehicle", "value": "equivalent"}
    ]}
  ]
}
